Source: the NIST ThermoML archive (doi:10.1016/j.jct.2010.05.007)
± gives the expanded uncertainty stated by the source.

Legend:
[1] = molar heat capacity at constant pressure; conditions: 298 K; 101.33 kPa; Liquid; Vacuum adiabatic calorimetry
[2] = Molar enthalpy of transition or fusion; conditions: Crystal 1; Adiabatic calorimetry
[3] = Crystal 1; Adiabatic calorimetry

molar heat capacity at constant pressure [1]: 310 ± 2.4 J/K/mol | Molar enthalpy of transition or fusion [2]: 4.54 ± 0.0478 kcal/mol | Triple point temperature [3]: 291.87 ± 0.05 K
SMILES: CCCCn1cc[n+](C)c1.[I-] [1-butyl-3-methylimidazolium iodide]
